Assay [1] deals with Oesophagostumum dentatum L3. Briefly: In vitro assay Oesophagostumum dentatum larval stage 3, minimum effective concentration. To be noted: 20 larvae per well, microscopic examination; read-out: MEC (minimum effective concentration) against Oesophagostumum dentatum L3. The format is cell-based. From the text: (§1) […] galli (intestinal roundworm of chicken), larval stage 3 (“L3”); and Oesophagostumum dentatum (nodular worm of swine), larval stages 3 and 4 (respectively “L3” and “L4”) where suspended in a nutrient medium and distributed to 96 well plates with 20 larvae per well. The wells were spiked DMSO solutions of the compounds with declining concentration.

The target in assay [2] is T1, human Maxi K channel (BK channel), KCNMA1 (KCa1.1) and beta1 (KCNMB1) subunits (Homo sapiens, UniProt Q12791).
T1 construct: expressed in transfected cells; host or cells: CHO K1
T1 sequence (Q12791 1-1178 isoform Q12791-5): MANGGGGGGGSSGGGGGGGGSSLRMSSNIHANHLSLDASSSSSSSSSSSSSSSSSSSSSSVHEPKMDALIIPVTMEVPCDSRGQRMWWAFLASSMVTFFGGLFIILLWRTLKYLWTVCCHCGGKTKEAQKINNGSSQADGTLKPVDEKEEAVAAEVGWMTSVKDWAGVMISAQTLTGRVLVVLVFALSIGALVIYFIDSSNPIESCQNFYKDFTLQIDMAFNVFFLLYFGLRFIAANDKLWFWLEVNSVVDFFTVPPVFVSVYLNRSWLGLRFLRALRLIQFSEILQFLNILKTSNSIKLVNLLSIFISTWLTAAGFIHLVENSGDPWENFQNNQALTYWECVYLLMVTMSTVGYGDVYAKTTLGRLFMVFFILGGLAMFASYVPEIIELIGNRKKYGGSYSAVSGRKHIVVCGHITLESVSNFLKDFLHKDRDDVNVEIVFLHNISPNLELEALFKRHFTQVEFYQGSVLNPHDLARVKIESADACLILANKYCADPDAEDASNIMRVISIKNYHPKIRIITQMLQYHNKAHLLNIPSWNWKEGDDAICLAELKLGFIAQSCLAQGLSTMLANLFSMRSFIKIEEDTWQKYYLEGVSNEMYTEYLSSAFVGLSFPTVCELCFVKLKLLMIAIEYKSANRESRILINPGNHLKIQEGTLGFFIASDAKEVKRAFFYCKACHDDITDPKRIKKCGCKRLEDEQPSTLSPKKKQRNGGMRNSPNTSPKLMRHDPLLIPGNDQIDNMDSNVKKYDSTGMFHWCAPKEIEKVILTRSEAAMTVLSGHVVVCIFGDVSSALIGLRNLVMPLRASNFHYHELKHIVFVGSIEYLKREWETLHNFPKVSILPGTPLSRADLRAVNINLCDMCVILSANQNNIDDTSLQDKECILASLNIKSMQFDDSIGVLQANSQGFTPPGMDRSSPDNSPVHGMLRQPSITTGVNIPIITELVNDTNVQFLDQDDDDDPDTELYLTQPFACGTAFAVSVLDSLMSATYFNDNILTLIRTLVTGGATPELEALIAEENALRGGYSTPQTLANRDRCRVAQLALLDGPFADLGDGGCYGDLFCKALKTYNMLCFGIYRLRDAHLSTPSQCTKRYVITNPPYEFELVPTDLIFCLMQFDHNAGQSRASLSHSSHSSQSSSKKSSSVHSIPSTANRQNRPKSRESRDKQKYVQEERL
T1 sequence (Q16558 whole entry partner): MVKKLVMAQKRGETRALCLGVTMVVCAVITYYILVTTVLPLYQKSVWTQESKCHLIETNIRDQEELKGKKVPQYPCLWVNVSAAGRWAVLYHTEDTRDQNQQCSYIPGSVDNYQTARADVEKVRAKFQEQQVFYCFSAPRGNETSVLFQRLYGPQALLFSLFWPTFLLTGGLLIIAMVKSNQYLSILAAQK
The assay is described as follows: Agonistic activity at the human Maxi K channel (BK channel), membrane potential (FLIPR) in transfected CHO K1 cells. Format: cell-based. As to conditions: membrane potential dye, 70 mM KCl. An excerpt:
A CHO K1 cell line was stably transfected with the KCNMA1 (KCa1.1, U11058) and beta1 (KCNMB1) subunits of the human Maxi K channel (Ponte et al, Molecular Pharmacology 2012, 81(4), 567-577).
The complete measurement takes 150 s.

The subject of the next assay is Ascaridia galli L3. The assay is described as follows: In vitro assay Ascaridia galli larval stage 3, minimum effective concentration. The format is cell-based. To be noted: 20 larvae per well, microscopic examination, read-out: MEC (minimum effective concentration) against Ascaridia galli L3.
Source text: as §1

Assay [3] has as its target Caenorhabditis elegans slo-1a (Caenorhabditis elegans, UniProt Q95V25). Briefly: Agonistic activity at C. elegans Slo-1a, membrane potential (FLIPR) in transfected CHO K1 cells. As to conditions: EC50 agonistic activity at C. elegans Slo-1a, membrane potential dye, 70 mM KCl.
Description: A CHO K1 cell line stably transfected with the Caenorhabditis elegans slo-1a (accession no Y51A2D.19a) was established. Cells were seeded in microtiter plates (black 384-well MTP, clear bottom) in a concentration of 10,000 cells/well in 25 μl medium and cultured for 20 to 24 hours at 37° C. and 5% CO2. The cell medium was removed, and the cells washed with Tyrode's solution. 1 of FMP-dye Blue-Tyrode's was added to each well and incubated at room temperature for 30 min.
For the membrane potential measurements, the prepared cell plate and substance plate were placed in the FLIPR Tetra (Molecular Devices). The baseline measurement of the fluorescence was stared for 20 sec (Exc. 510-545 nm, Emm. 565-625 nm). The cells were depolarized by addition of 25p of the diluted test compounds (final assay concentration of the KCl-Tyrode: 70 mM KCl, 2 mM CaCl2), 1 mM MgCl2, 0.8 mM NaH2PO4, 5 mM Glucose, 28 mM Hepes, pH 7.4, including the voltage sensitive dye). The complete measurement takes 150 s.
EC50 values were determined in triplicate utilizing compound dilution series. The data were determined at least in two independent tests. The data were proceeded by using the ActivityBase XE Runner software (IDBS) for curve fitting and calculation of the half-maximal effective concentration.
The subject of the next assay is Dirofilaria immitis L4. Briefly: In vitro assay Dirofilaria immitis L4 motility. The format is cell-based. As to conditions: 72 h, 10 larvae L4, incubation 3 days, read-out: EC50 Dirofilaria immitis L4, reduction in motility. The procedure:
10 larvae L4 of D. immitis were added to a microtiter plate containing a nutrient medium and the test compound in DMSO at varying concentrations. After incubation for 3 days, activity was evaluated as reduction in motility as compared to DMSO as negative control. Compounds were tested in duplicates. Based on the concentration response curves EC50 values were calculated.

Assay [4] concerns Oesophagostumum dentatum L4. Briefly: In vitro assay Oesophagostumum dentatum larval stage 4, minimum effective concentration. Format: cell-based. As to conditions: 20 larvae per well, microscopic examination; read-out: MEC (minimum effective concentration) against Oesophagostumum dentatum L4.
Source text: as §1

Another assay has as its system Dirofilaria immitis L1. The assay is described as follows: In vitro assay Dirofilaria immitis L1 (microfilaria) motility. The format is cell-based. As to conditions: 72 h, incubation 3 days, read-out: EC50 Dirofilaria immitis L1, reduction in motility. The procedure: Approximately 500 D. immitis microfilaria were added to a microtiter plate containing a nutrient medium and the test compound in DMSO at varying concentrations. After incubation for 3 days, activity was evaluated as reduction in motility as compared to DMSO as negative control. Compounds were tested in duplicates. Based on the concentration response curves EC50 values were calculated.

The test system of a further assay is Haemonchus contortus. Briefly: In vivo efficacy against Haemonchus contortus in jirds. As to conditions: necropsy three days after treatment. Details: species or system Haemonchus contortus in jirds (Meriones unguiculatus). The procedure:
Compounds according to this invention were tested in vivo using Haemonchus contortus in jirds (Meriones unguiculatus). The jirds were orally infected with approximately 1500 third-stage larvae of Haemonchus contortus. Ten days after infection, the jirds in the treatment groups were treated once either orally or subcutaneously with compounds at a dose of […]. For treatment, compounds were dissolved in a mixture of 10% Transcutol, 10% Cremophor EL and 80% physiological sodium chloride solution. Three days after treatment, the jirds were necropsied, and the larvae burden in the stomach was determined. The efficacy was defined as the reduction of the mean larvae count in the infected jirds of the treatment group in comparison to the infected jirds in an untreated control group (negative control).

Chain of Caenorhabditis elegans slo-1a (Q95V25 whole entry): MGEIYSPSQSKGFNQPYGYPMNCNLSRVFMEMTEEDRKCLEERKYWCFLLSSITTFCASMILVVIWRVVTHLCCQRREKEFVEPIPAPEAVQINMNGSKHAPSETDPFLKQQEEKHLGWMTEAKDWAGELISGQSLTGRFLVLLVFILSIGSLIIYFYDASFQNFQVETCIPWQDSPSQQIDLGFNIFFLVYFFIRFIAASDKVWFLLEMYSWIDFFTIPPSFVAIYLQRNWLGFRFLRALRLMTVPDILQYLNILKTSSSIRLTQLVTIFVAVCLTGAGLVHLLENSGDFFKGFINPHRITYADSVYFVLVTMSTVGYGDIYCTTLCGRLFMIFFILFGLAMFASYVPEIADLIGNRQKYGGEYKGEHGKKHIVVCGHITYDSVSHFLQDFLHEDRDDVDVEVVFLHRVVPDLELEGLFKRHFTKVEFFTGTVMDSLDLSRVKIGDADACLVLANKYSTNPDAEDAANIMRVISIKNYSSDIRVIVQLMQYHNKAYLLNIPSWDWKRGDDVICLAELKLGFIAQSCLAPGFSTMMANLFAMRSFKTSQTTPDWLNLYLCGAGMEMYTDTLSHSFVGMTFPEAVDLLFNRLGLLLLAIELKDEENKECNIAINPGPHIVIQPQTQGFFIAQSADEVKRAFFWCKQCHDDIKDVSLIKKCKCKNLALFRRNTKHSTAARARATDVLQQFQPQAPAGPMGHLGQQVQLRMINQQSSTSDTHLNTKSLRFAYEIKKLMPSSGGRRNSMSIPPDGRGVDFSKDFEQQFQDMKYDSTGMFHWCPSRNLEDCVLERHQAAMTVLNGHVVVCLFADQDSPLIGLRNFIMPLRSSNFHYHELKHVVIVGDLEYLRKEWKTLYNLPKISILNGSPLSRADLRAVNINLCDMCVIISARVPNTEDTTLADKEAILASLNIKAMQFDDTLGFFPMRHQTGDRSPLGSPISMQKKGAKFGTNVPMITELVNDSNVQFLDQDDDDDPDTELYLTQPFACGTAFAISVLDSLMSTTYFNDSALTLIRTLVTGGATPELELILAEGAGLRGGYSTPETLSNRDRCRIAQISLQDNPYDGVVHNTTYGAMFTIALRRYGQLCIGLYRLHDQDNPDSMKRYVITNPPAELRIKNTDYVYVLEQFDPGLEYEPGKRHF

In the case of `CN(C)c1c(NC(=O)Cc2ccccc2)cnc2c(-c3cc(Cl)cc(Cl)c3)cccc12` [Compound 3], the minimal effective concentration (in assay [1]; in the assay with Ascaridia galli L3) was at most 50 µM each time. For the same compound, the EC50 in assay [2] was over 30 µM; in assay [3], under 10 µM; with Dirofilaria immitis L4, under 1 µM.

In the case of `CC(C(=O)Nc1cnc2c(-c3cccc(Cl)c3Cl)cccc2c1N(C)C)c1cccc(Cl)c1` (stereo not shown) [Compound 28], the EC50 in assay [2] is over 30 µM; in the assay on Dirofilaria immitis L1, under 10 µM. In addition, the minimal effective concentration (in assay [4]; in the assay with Ascaridia galli L3) was at most 50 µM throughout.

For `COc1cccc(C(C)C(=O)Nc2cnc3c(-c4cccc(Cl)c4Cl)cccc3c2N(C)C)c1` (stereo not shown) [Compound 29], the EC50 in assay [2] was over 30 µM; in the assay with Dirofilaria immitis L1, under 10 µM; in assay [3], under 10 µM. The minimal effective concentration (in assay [4]; with Ascaridia galli L3) was at most 50 µM throughout.

For `O=C(Nc1cnc2c(-c3cccc(Cl)c3Cl)c(F)ccc2c1N1CCOCC1)c1cccc2ccccc12` [Compound 151], the “reduction of the Haemonchus contortus count” value with Haemonchus contortus (administered orally once at 10 mg/kg bw) and in the assay on Haemonchus contortus (administered subcutaneously once at 10 mg/kg bw) was “at least 80%” each time.

The values are drawn from US12509449B2, “Anthelmintic compounds comprising a quinoline structure” (Intervet Inc., priority 2019, dated 2025).
